Source: patent US6552027B2, “Quinazolines for treating brain tumor” (Parker Hughes Institute, priority 1998, dated 2003)
Where “and” joins values, the source holds several entries; their conditions need not be identical. Identical values can stand only once. Like-named read-outs stand apart in the source and are kept apart here.

What was measured:
[1] = test system: U373 cells; assay: EGF-stimulated cell adhesion to poly-L-lysine coated plates; assay type: cell-based, human; details: stimulation with 250 ng/ml EGF, baseline 33.2±5.2%, P<0.02
Description: To study the effects of quinazoline derivatives on EGF-stimulated cell adhesion, the trypsinized and recovered cells were incubated with varying concentrations ranging from 1 μM to 50 μM of quinazolines for 4 hours at 37° C., then stimulated with 250 ng/ml of EGF and examined for their ability to adhere to poly-L-lysine coated plates.
For the EGF stimulation experiments, the cells were plated in the presence of 250 ng/ml of EGF and allowed to adhere for 1 hour. The non-adherent cells were removed by gently washing the cells with PBS and then the adherent fraction was quantitated as described above for Example 6.

[2] = test system: U373 human glioblastoma cells; assay: SCID mouse xenograft model of human glioblastoma; details: for in vivo anti-tumor activity / tumor-free survival (in words): daily i.p. doses for 10 days starting the day after inoculation
Description: The right hind legs of the CB. 17 SCID mice were inoculated subcutaneously (s.c.) with 0.5×10^6 U373 human glioblastoma cells in 0.2 mL PBS. […] Daily treatments with PBS, unconjugated EGF (1 mg/kg/dose), and unconjugated WHI-P154 (1 mg/kg/dose) were used as controls. Mice were monitored daily for health status and tumor growth, and were sacrificed if they became moribund developed tumors which impeded their ability to attain food or water, at the end of the 3-month observation period. Tumors were measured using Vernier calipers twice weekly, and the tumor volumes were calculated according to the following formula (Friedman, S. H., mDolan, M. E., Pegg, A. E., Marcelli, S., Keir, S., Catino, J. J., Binger, D. D., Schold, S. C., Jr., 1995, Cancer Res., 55:2853-2857): [formula]
For histopathologic studies, tissues were fixed in 10% neutral buffered formalin, dehydrated, and embedded in paraffin by routine methods. Glass slides with affixed 6 micron tissue sections were prepared and stained with hematoxylin/eosin. Primary endpoints of interest were tumor growth and tumor-free survival outcome. Estimation of life table outcome and comparisons of outcome between groups were done, as previously reported (Waurzyniak, et al., 1997, Clinical Cancer Research 3:881-890; Anderson, et al., 1995, Cancer Res. 55:1321-1327; Uckun, et al., 1997, J. Clin. Oncol. 15:2214-2221).

[3] = test system: NALM-6 leukemia cells; assay: MTT cytotoxicity assay, EGF-R negative leukemia cells (negative control line); assay type: cell-based
Description: Triplicate wells were used for each treatment.
Human glioblastoma cell line U373 was obtained from American.
The percent survival was calculated using the formula: [formula]

[4] = test system: U87 human glioblastoma cell line; assay: MTT cytotoxicity assay, U87 glioblastoma cells; assay type: cell-based
Description: (§1) The cytotoxicity assay of various compounds against human brain tumor cell lines was performed using the MTT (3-[4,5-dimethylthiazol-2-yl]-2,5-diphenyl tetrazolium bromide) assay (Boehringer Mannheim Corp., Indianapolis, Ind.). Briefly, exponentially growing brain tumor cells were seeded into a 96-well plate at a density of 2.5×10^4 cells/well and incubated for 36 hours at 37° C. prior to drug exposure. […] Triplicate wells were used for each treatment.
(§2) The cells were incubated with the various compounds for 24-36 hours at 37° C. in a humidified 5% CO2 atmosphere. To each well, 10 μl of MTT (0.5 mg/ml final concentration) was added and the plates were incubated at 37° C. for 4 hours to allow MTT to form formazan crystals by reacting with metabolically active cells. The formazan crystals were solubilized overnight at 37° C. in a solution containing 10% SDS in 0.01 M HCl. The absorbence of each well was measured in a microplate reader (Labsystems) at 540 nm and a reference wavelength of 690 nm. To translate the OD540 values into the number of live cells in each well, the OD540 values were compared to those on standard OD540—versus—cell number curves generated for each cell line. The percent survival was calculated using the formula: [formula]
(§3) The IC50 values were calculated by non linear regression analysis.
Apoptosis was also evaluated using the nick-end-labeling assay, as described for Example 3.

[5] = test system: glioblastoma cells; assay: In situ apoptosis assay (TdT-mediated dUTP nick-end labeling); assay type: cell-based, human; details: 36 hours after treatment; FIGS. 6D and 6E
Description: After a 36 hour incubation at 37° C. in a humidified 5% CO2 incubator, the supernatants were carefully aspirated and the cells were treated for 1-2 minutes with 0.1% trypsin. The detached cells were collected into a 15 ml centrifuge tube, washed with medium and pelleted by centrifugation at 1000 rpm for 5 minutes. Cells were resuspended in 50 μl of PBS, transferred to poly-L-lysine coated coverslips and allowed to attach for 15 minutes. The cells were washed once with PBS and incubated with equilibration buffer for 10 minutes at room temperature.
After removal of the equilibration buffer, cells were incubated for 1 hour at 37° C. with the reaction mixture containing terminal deoxynucleotidyl transferase (TdT) and […] for labeling of exposed 3′-hydroxyl ends of fragmented nuclear DNA. The cells were washed with PBS and incubated with anti-digoxigenin antibody conjugated to FITC for 1 hour at room temperature to detect the incorporated dUTP. After washing the cells with PBS, the coverslips were mounted onto slides with Vectashield containing propidium iodide (Vector Labs, Burlingame, Calif.) and viewed with a confocal laser scanning microscope. […] In control reactions, the TdT enzyme was omitted from the reaction mixture.

[6] = test system: U373 human glioblastoma cell line; assay: MTT cytotoxicity assay, U373 glioblastoma cells; details: U373
Description: as §1
Human glioblastoma cell line U373 was obtained from American. Type Culture Collection (Rockville, Md.) and maintained as a continuous cell line in Dulbecco's modified Eagles's medium supplemented with 10% fetal bovine serum and antibiotics. The B-lineage acute lymphoblastic leukemia cell line Nalm-6 was used as a negative control.
as §2, §3

[7] = test system: U373 glioblastoma cells; assay: Uptake and internalization by immunofluorescence and confocal microscopy; assay type: cell-based, human; details: 5 μg/ml
Description: At the end of the incubation, cells were washed twice with PBS and fixed in 2% paraformaldehyde. The cells were permeabilized and non-specific binding sites were blocked with 2.5% BSA in PBS containing 0.1% Triton X-100 for 30 minutes. […] After rinsing with PBS, cells were incubated for 1 hour with a mixture of a goat anti-mouse IgG antibody conjugated to FITC (Amersham Corp., Arlington Heights, Ill.) and donkey anti-rabbit IgG conjugated to Texas Red (Amersham Corp.) at a dilution of 1:40 in PBS. Similarly, tubulin expression was examined by immunofluorescence using a monoclonal antibody against α-tubulin (Sigma Chemical Co, St. Louis, Mo.) at a dilution of 1:1000 and an anti-mouse IgG conjugated to FITC. Cells were washed in PBS and counterstained with toto-3 (Molecular Probes Inc., Eugene, Oreg.) for 10 minutes at a dilution of 1:1000. Cells were washed again with PBS and the coverslips were mounted with Vectashield (Vector Labs, Burlingame, Calif.) and viewed with a confocal microscope (Bio-Rad MRC 1024) mounted in a Nikon Labhophot upright microscope.

[8] = test system: U373 glioma cells; assay: Morphology by anti-α-tubulin / TOTO-3 immunofluorescence; assay type: cell-based, human; details: 25 μg/ml, 24 hours
Description: Cells were fixed in paraformaldehyde, immunostained with monoclonal antibody to EGF-R (green fluorescence) and counterstained with TOTO-3 (blue fluorescence) The immunostained cells were analyzed with a laser scanning confocal microscope. Blue fluorescence represents nuclei.
Immunofluorescence was used to (i) examine the surface expression of EGF-receptor (EGF-R) on brain tumor cells, (ii) evaluate the uptake of EGF-P154 by brain tumor cells and (iii) examine the morphologic features of EGF-P154 treated brain tumor cells.
At the end of the incubation, cells were washed twice with PBS and fixed in 2% paraformaldehyde. The cells were permeabilized and non-specific binding sites were blocked with 2.5% BSA in PBS containing 0.1% Triton X-100 for 30 minutes. […] After rinsing with PBS, cells were incubated for 1 hour with a mixture of a goat anti-mouse IgG antibody conjugated to FITC (Amersham Corp., Arlington Heights, Ill.) and donkey anti-rabbit IgG conjugated to Texas Red (Amersham Corp.) at a dilution of 1:40 in PBS. Similarly, tubulin expression was examined by immunofluorescence using a monoclonal antibody against α-tubulin (Sigma Chemical Co, St. Louis, Mo.) at a dilution of 1:1000 and an anti-mouse IgG conjugated to FITC. Cells were washed in PBS and counterstained with toto-3 (Molecular Probes Inc., Eugene, Oreg.) for 10 minutes at a dilution of 1:1000. […]

[9] = read-out: IC50 value derived from the composite cell survival curve
[10] = 500 μg/kg/day×10 days i.p., 5 mice

Substance: EGF: Recombinant human EGF produced in E. coli; used unconjugated as control and as adhesion stimulus
- fraction capable of adhering to poly-L-lysine coated plates [1]: 58.48±4.7%
- time at which tumors reached a size of 50 mm^3 ([2]; 1 mg/kg/day×10 days i.p.): 34.0 ± 3.0 days
- median tumor-free survival ([2]; 1 mg/kg/day×10 days i.p., N=5): 23 days
- in vivo anti-tumor activity / tumor-free survival (in words) [2]: inability

Substance: EGF-P154: WHI-P154 attached to recombinant human EGF by photochemical conjugation with the crosslinking agent Sulfo-SANPAH
- cytotoxicity against EGF-R negative leukemia cells (in words) [3]: selective cytotoxicity to EGF-R positive glioblastoma cell lines only
- IC50 ([4]; 3 independent experiments, FIG. 5A, read-out: mean IC50 value): 620 ± 97 nM
- IC50 ([4]; 3 independent experiments, read-out: range of IC50 values): 487 to 761 nM
- IC50 [4, 9]: 601 nM
- apoptotic nuclei by digoxigenin-dUTP incorporation (in words) [5]: many apoptotic yellow nuclei
- IC50 [6, 9]: 881 nM
- IC50 ([6]; read-out: mean IC50 value, 3 independent experiments, FIG. 5A): 813 nM and 811 nM
- IC50 ([6]; read-out: range of IC50 values, 3 independent experiments): 588 to 950 nM
- time at which internalized complexes were detected in the perinuclear region [7]: ≤ 30 min
- morphologic changes (in words) [8]: complete disruption of microtubules, marked shrinkage, nuclear fragmentation and inability to adhere to the substratum
- average size (mean±SE) of tumors at 40 days ([2]; 500 μg/kg/day dose level, P=0.0003): 37.6±10.7 mm^3
- average size (mean±SE) of tumors at 20 days ([2]; 500 μg/kg/day dose level, P=0.002): 1.0±1.1 mm^3
- delay in reaching the 50 mm^3 tumor size versus control mice (PBS, EGF, or WHI-P154) ([2]; 500 μg/kg/day×10 days): approximately 11 days
- time at which tumors reached a size of 50 mm^3 ([2]; 500 μg/kg/day×10 days i.p.): 47.4 ± 7.1 days
- median tumor-free survival [2, 10]: 33 days
- time within which all mice developed tumors [2, 10]: ≤ 40 days
- mice alive and free of detectable tumors for >58 days ([2]; 1 mg/kg/day, 10 consecutive days): 40%
- enhancement of in vivo anti-tumor activity of WHI-P154 by conjugation to EGF ([2]; 1 mg/kg/day×10 days, 53.2 nmol vs 2.9 nmol of WHI-P154): > 8 fold
- tumor size in the remaining 60% of the mice ([2]; 1 mg/kg/day×10 days, 58-day observation period): ≤ 50 mm^3
- toxicity of the applied dose levels (in words) ([2]; 0.5 and 1 mg/kg/day×10 days i.p.): nontoxic
- in vivo anti-tumor activity / tumor-free survival (in words) [2]: significantly improved tumor-free survival in a dose-dependent fashion
- in vivo anti-tumor activity / tumor-free survival (in words) ([2]; listed as EGF-P54): significant in vivo anti-tumor activity
